PubChem BioAssay (NCI)
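Five concentrations, 48 hours, 96-well plates. TGI: concentration producing complete growth inhibition.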

Experiments:
Assay in all cases: NCI tumour cell line growth inhibition, 48 h
[1] = test system: 786-0 renal
[2] = test system: A498 renal
[3] = test system: A549 NSCLC
[4] = test system: ACHN renal
[5] = test system: BT-549 breast
[6] = test system: CAKI-1 renal
[7] = test system: CCRF-CEM leukemia
[8] = test system: COLO 205 colon
[9] = test system: DLD-1 colon
[10] = test system: DMS 114 small cell lung
[11] = test system: DMS 273 small cell lung
[12] = test system: DU-145 prostate
[13] = test system: EKVX NSCLC
[14] = test system: HCC-2998 colon
[15] = test system: HCT-116 colon
[16] = test system: HCT-15 colon
[17] = test system: HL-60(TB) leukemia
[18] = test system: HOP-18 NSCLC
[19] = test system: HOP-62 NSCLC
[20] = test system: HS 578T breast
[21] = test system: HT29 colon
[22] = test system: IGROV1 ovarian
[23] = test system: K-562 leukemia
[24] = test system: KM12 colon
[25] = test system: KM20L2 colon
[26] = test system: LOX IMVI melanoma
[27] = test system: LXFL 529 NSCLC
[28] = test system: M14 melanoma
[29] = test system: M19-MEL melanoma
[30] = test system: MALME-3M melanoma
[31] = test system: MCF7 breast
[32] = test system: MDA-MB-231 breast
[33] = test system: MDA-MB-435
[34] = test system: MDA-N
[35] = test system: MOLT-4 leukemia
[36] = test system: NCI-H226 lung
[37] = test system: NCI-H23 lung
[38] = test system: NCI-H460 lung
[39] = test system: NCI-H522 lung
[40] = test system: NCI/ADR-RES ovarian
[41] = test system: OVCAR-3 ovarian
[42] = test system: OVCAR-4 ovarian
[43] = test system: OVCAR-5 ovarian
[44] = test system: OVCAR-8 ovarian
[45] = test system: PC-3 prostate
[46] = test system: RPMI-8226 leukemia
[47] = test system: RXF 393 renal
[48] = test system: RXF-631 renal
[49] = test system: SF-268 CNS
[50] = test system: SF-295 CNS
[51] = test system: SF-539 CNS
[52] = test system: SK-MEL-2 melanoma
[53] = test system: SK-MEL-28 melanoma
[54] = test system: SK-MEL-5 melanoma
[55] = test system: SK-OV-3 ovarian
[56] = test system: SN12C renal
[57] = test system: SNB-19 CNS
[58] = test system: SNB-75 CNS
[59] = test system: SNB-78 CNS
[60] = test system: SR leukemia
[61] = test system: SW-620 colon
[62] = test system: T-47D breast
[63] = test system: TK-10 renal
[64] = test system: U251 CNS
[65] = test system: UACC-257 melanoma
[66] = test system: UACC-62 melanoma
[67] = test system: UO-31 renal
[68] = test system: XF 498 CNS

In the case of `C/C1=C/C2OC(=O)C3(C)C2C(CC2(C)OC1=CC2=O)OC3(O)C(C)C` (stereo not drawn), the TGI [1] is reported as > 69.3 µM, the TGI [2] is reported as > 100 µM and the TGI [3] is reported as > 100 µM. The TGI [4] was > 100 µM, the TGI [5] was 24.9 µM and the TGI [6] was 62 µM. The TGI [7] was > 73.4 µM, the TGI [8] was > 73 µM and the TGI [9] was 87.8 µM. The TGI [10] was 29.6 µM, the TGI [11] was > 100 µM and the TGI [12] was > 100 µM. The TGI [13] was > 100 µM, the TGI [14] was 48.8 µM and the TGI [15] was > 100 µM. The TGI [16] was > 63.1 µM, the TGI [17] was 54.9 µM and the TGI [18] was > 100 µM. The TGI [19] was > 100 µM, the TGI [20] was > 100 µM and the TGI [21] was > 66.9 µM. The TGI [22] was > 84.5 µM, the TGI [23] was > 100 µM and the TGI [24] was > 60.3 µM. For the same compound, the TGI [25] was 43.2 µM, the TGI [26] was > 100 µM and the TGI [27] was 93.1 µM. The TGI [28] was > 100 µM, the TGI [29] was > 100 µM and the TGI [30] was 77.8 µM. For the same compound, the TGI [31] was > 100 µM, the TGI [32] was > 100 µM and the TGI [33] was > 100 µM. For the same compound, the TGI [34] was > 100 µM, the TGI [35] was > 100 µM and the TGI [36] was > 78.6 µM. For the same compound, the TGI [37] was > 54.1 µM, the TGI [38] was > 100 µM and the TGI [39] was 35.7 µM. The TGI [40] was > 100 µM, the TGI [41] was > 64.9 µM and the TGI [42] was > 55.3 µM. The TGI [43] was > 79.3 µM, the TGI [44] was > 62.4 µM and the TGI [45] was > 100 µM. The TGI [46] was > 86.1 µM, the TGI [47] was > 70.5 µM and the TGI [48] was > 100 µM. The TGI [49] was > 65.9 µM, the TGI [50] was > 78.7 µM and the TGI [51] was > 89.6 µM. The TGI [52] was > 84.6 µM, the TGI [53] was > 100 µM and the TGI [54] was 55 µM. For the same compound, the TGI [55] was > 100 µM, the TGI [56] was > 71.4 µM and the TGI [57] was > 74.4 µM. For the same compound, the TGI [58] was > 100 µM, the TGI [59] was > 100 µM and the TGI [60] was 65.7 µM. The TGI [61] was 67.4 µM, the TGI [62] was > 100 µM and the TGI [63] was > 100 µM. The TGI [64] was > 54 µM, the TGI [65] was > 75.1 µM and the TGI [66] was 56.4 µM. For the same compound, the TGI [67] was > 100 µM and the TGI [68] was 41 µM.
